Measurements taken from PMC8654833 (Scientific Reports, 2021).
pIC50: −log10 of the molar value. Values joined by “and” are separate entries in the source; they are usually repeats but may differ in a detail not shown here. Identical values can stand only once.

Key:
DAT [1] = biological target: T1, DAT (Homo sapiens, UniProt Q01959); test: Single-concentration radioligand binding screen (Eurofins Cerep), dopamine transporter; details: single concentration 10 µM screen, [3H]BTCP
T1 construct: Euroscreen FAST (contract assay)
T1 sequence (Q01959 whole entry, species assumed): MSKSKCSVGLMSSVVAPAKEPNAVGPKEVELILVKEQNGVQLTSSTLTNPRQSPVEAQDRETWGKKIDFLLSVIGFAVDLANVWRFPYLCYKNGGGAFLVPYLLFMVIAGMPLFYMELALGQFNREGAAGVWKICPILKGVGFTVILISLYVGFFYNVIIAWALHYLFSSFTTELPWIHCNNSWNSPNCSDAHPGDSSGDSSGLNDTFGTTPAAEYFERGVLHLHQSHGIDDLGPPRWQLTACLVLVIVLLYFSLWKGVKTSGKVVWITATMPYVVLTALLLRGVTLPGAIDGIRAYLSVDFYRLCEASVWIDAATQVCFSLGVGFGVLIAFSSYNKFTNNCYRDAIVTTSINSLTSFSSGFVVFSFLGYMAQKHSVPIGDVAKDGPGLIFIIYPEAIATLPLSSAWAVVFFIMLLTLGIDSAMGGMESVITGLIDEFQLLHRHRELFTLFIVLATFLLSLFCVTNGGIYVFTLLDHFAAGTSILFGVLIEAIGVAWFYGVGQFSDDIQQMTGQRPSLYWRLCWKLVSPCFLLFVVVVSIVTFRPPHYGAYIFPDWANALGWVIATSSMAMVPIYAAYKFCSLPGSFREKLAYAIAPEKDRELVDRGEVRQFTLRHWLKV
Description: (§1) This study included binding assays (87 GPCR targets), measured as % of binding inhibition of a reference radioligand, as well as uptake and enzyme assays (19 targets), the latter measured as % inhibition of control enzyme activity. […] It was performed by radioligand binding competition by Euroscreen (Euroscreen FAST, Belgium). The following nanomolar concentrations were tested in duplicate: 0.001, 0.01, 0.1, 1, 10, 100, 1000, 10,000. Dose–response curves were fitted with the least squares method. IC50 results are shown as pIC50, corresponding to the negative log10 of IC50 in molar.

Ca^2+ channel, ds = test: Single-concentration radioligand binding screen (Eurofins Cerep), Ca2+ channel diltiazem site; details: single concentration 10 µM screen, [3H]diltiazem
Description: as §1

5-HT7 [2] = biological target: T2, 5-HT7 (Homo sapiens, UniProt P34969); test: Single-concentration radioligand binding screen (Eurofins Cerep), 5-HT7; details: single concentration 10 µM screen, [3H]LSD
T2 construct: Euroscreen FAST (contract assay)
T2 sequence (P34969 whole entry, species assumed): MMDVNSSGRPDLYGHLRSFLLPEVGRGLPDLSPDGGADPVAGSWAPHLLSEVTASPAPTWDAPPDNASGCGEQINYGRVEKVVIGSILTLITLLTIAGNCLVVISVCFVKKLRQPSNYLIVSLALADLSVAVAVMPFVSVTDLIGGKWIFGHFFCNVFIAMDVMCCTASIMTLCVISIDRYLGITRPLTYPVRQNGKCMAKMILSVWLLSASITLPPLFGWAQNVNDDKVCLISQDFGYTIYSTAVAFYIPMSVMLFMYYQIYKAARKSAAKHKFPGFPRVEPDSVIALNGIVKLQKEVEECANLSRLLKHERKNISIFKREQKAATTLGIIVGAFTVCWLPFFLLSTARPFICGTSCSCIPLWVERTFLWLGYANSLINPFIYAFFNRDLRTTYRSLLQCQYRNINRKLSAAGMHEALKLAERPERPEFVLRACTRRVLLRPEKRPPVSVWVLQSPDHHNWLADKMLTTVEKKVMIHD
Description: as §1

5-HT5A = biological target: T3, 5-HT5A (Homo sapiens, UniProt P47898); test: Single-concentration radioligand binding screen (Eurofins Cerep), 5-HT5A; details: single concentration 10 µM screen, [3H]LSD
T3 construct: Euroscreen FAST (contract assay)
T3 sequence (P47898 whole entry, species assumed): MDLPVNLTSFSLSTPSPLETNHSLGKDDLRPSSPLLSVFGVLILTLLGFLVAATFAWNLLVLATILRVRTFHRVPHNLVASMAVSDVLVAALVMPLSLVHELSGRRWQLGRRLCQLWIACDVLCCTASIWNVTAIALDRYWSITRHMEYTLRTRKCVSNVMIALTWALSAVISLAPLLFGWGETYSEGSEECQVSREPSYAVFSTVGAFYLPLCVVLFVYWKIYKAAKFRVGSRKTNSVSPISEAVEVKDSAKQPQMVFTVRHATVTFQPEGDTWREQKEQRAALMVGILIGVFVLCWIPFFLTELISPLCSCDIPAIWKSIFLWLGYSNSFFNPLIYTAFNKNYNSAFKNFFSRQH
Description: as §1

5-HT1B = biological target: T4, 5-HT1B (Homo sapiens, UniProt P28222); test: Radioligand binding competition dose-response (Euroscreen), 5-HT1B
T4 construct: Euroscreen FAST (contract assay)
T4 sequence (P28222 whole entry, species assumed): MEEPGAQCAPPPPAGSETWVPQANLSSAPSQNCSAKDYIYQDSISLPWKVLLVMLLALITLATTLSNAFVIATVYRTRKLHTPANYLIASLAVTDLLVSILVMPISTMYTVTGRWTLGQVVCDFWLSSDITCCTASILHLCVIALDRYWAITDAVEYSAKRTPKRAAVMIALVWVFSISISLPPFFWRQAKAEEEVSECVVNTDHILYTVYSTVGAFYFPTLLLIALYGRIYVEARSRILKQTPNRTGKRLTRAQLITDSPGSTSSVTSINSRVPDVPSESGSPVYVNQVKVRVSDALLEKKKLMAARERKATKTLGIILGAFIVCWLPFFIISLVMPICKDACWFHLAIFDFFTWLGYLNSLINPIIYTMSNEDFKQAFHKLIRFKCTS
Description: as §1

DAT [3] = biological target: T1, DAT; test: Radioligand binding competition dose-response (Euroscreen), dopamine transporter
Description: as §1

5-HT7 [4] = biological target: T2, 5-HT7; test: Radioligand binding competition dose-response (Euroscreen), 5-HT7
Description: as §1

5-HT2C = biological target: T5, 5-HT2C (Homo sapiens, UniProt P28335); test: Radioligand binding competition dose-response (Euroscreen), 5-HT2C
T5 construct: Euroscreen FAST (contract assay)
T5 sequence (P28335 33-458): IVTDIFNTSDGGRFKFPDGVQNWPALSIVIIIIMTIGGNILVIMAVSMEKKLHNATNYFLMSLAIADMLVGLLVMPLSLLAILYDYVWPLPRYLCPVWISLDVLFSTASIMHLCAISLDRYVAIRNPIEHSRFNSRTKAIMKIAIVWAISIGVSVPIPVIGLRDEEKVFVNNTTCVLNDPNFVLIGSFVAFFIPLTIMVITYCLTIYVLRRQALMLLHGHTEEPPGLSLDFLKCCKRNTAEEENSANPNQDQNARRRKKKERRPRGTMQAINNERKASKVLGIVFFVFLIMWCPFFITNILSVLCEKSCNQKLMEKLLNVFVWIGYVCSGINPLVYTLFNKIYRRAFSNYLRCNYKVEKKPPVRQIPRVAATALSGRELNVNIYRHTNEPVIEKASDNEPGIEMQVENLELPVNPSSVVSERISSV
Description: as §1

Sod1^G86R mice = test: Body weight, grip strength, onset and survival follow-up in ALS mouse model; assay type: in vivo; details: for median survival: p > 0.05 vs vehicle (109 days)
Excerpt: Osmotic mini-pumps were collected at endstage, and mini-pump emptying was systematically checked. After mini-pump implantation, mice were longitudinally followed for body weight, grip strength and survival.
To this aim, we measured mitral valve thickness using histology (Fig. 3).
Sod1^G86R mice on FVB/N background were produced by rapid lineage extension at Charles River facility, France. The resulting animals were F1 hybrid FVB/NRj and FVB/NCrl. During experimentation, mice were housed at the animal facility of the Faculty of Medicine of the University of Strasbourg, in a conventional sanitary status. […] We included both females and males in equal proportions. […] Mice were sacrificed at end-stage by lethal intraperitoneal injection of pentobarbital (Doléthal 120 mg/kg, Vetoquinol, France). Spinal cord, brain and blood samples were then collected. All animal care and procedures were in accordance with institutional guidelines and European regulations.
Mice were visually monitored daily for any potential ethical issue. Body weight and muscular strength were monitored twice a week. Muscular strength was assessed using a gripmeter test (ALG01, Bioseb, France). Results are the mean of three successive measures and were normalized by body weight. Onset of the pathology was calculated as the time between birth and peak of body weight. Duration of the disease is the time between onset and death of the mouse. End-stage was defined as the inability of the animal to turn around after 3 s placed on the back, and subsequent euthanasia followed. Muscular strength and weight loss are presented as percent loss from disease onset. […] Survival is presented as Kaplan–Meier curves.

[5] = test system: microglia related genes in the cervical and thoracic spinal cord; test: RT-qPCR of microglia related genes in spinal cord; assay type: in vivo, Sod1^G86R mice
Description: We then sought to characterize whether BW modulated microglial physiology and used RT-qPCR to measure microglia related genes in the cervical and thoracic spinal cord of animals treated with either vehicle or 3 mg/kg/d of BW. […] We next wanted to see if these changes in gene expression were accompanied by modification of microglial activation in spinal cord of treated mice. Iba1 + cells were classified in 4 different activation states (resting, activated, phagocytic or dystrophic).
Total RNA was extracted from the cervical and thoracic spinal cord of end stage mice using TRIzol (Invitrogen). Reverse transcription was performed using 1 μg of RNA and the iScript cDNA synthesis kit (BioRad). IQ SYBR green Supermix (BioRad) was used to perform RT-PCR. Data were normalized with GeNorm software (RRID: SCR_006763)[25]. Three reporter genes were used for normalization: POL2, TBP and Actin. Oligonucleotide primers are provided in Supplementary Table S1.

5-HT2B [6] = biological target: T6, 5-HT2B (Homo sapiens, UniProt P41595); details: dose-response study, maximal concentration 10 µM, [3H]mesulergine
T6 sequence (P41595 whole entry, species assumed): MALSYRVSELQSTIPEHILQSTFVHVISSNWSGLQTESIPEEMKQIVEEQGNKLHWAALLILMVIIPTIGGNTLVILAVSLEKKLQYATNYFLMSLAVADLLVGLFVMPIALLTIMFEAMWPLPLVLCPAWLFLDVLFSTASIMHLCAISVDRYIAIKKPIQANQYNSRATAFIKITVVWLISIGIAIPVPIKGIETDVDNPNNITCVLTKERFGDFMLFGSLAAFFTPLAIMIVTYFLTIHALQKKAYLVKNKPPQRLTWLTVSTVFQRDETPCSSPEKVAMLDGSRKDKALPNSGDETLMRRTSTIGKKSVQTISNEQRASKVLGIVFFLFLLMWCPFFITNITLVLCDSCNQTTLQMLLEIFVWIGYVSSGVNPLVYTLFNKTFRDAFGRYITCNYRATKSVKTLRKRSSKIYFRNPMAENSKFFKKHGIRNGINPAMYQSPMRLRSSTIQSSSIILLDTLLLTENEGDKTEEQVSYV

5-HT2B receptor = details: cited from earlier work
5-HT2B [7] = biological target: T6, 5-HT2B; test: biochemical; details: read-out: %Binding inhibition at 10 µM, dose-response study, maximal concentration 10 µM, [3H]mesulergine
5-HT2B [8] = biological target: T6, 5-HT2B; test: Single-concentration radioligand binding screen (Eurofins Cerep), 5-HT2B; parameters: Euroscreen FAST (contract assay); details: single concentration 10 µM screen, [3H]mesulergine
[9] = Plasma and brain distribution after single IP injection; details: CD-1, mouse, 10 mg/kg

## CC(N)Cc1c[nH]c2ccc(OCc3cccs3)cc12 (centres unmarked) [BW, 1-[5-(thiophen-2-ylmethoxy)-1H-indol-3-yl]propan-2-amine]
DAT [1]
  inhibition at 10 µM: 81.9%
Ca^2+ channel, ds
  %Binding inhibition at 10 µM: 66.3%
5-HT7 [2]
  inhibition at 10 µM: 89.5%
5-HT5A
  inhibition at 10 µM: 54.6%
5-HT1B
  pIC50: 6.74
5-HT1B; dose-response study, maximal concentration 10 µM, [3H]5-CT, 10 µM
  %Binding inhibition at 10 µM: 101.39%
5-HT1B; read-out: %Binding inhibition at 10 µM, dose-response study, maximal concentration 10 µM, [3H]5-CT
  inhibition at 10 µM: 100%
DAT [3]
  pIC50: 6.13
DAT [3]; read-out: %Binding inhibition at 10 µM
  inhibition at 10 µM: 73.2%
5-HT7 [4]
  pIC50: 5.99
5-HT7 [4]; dose-response study, maximal concentration 10 µM, [3H]LSD
  inhibition at 10 µM: 91.8%
5-HT2C
  pIC50: 5.88
5-HT2C; dose-response study, maximal concentration 10 µM, [3H]mesulergine
  inhibition at 10 µM: 91.1%
Sod1^G86R mice; 1 mg/kg/d
  median survival: 107 days
Sod1^G86R mice; 3 mg/kg/d
  median survival: 109 days
Sod1^G86R mice; 1 or 3 mg/kg/d, compared to vehicle
  disease onset: unchanged
[5]; 3 mg/kg/d, spinal cord RT-qPCR
  Hexb upregulation in Sod1^G86R mice: partially prevented
  disease-associated upregulation of Nox2: partially prevented
  disease-associated upregulation of Tyrobp (DAP12): partially prevented
  upregulation of disease-associated microglia marker Apoe: blunted the upregulation
  upregulation of disease-associated microglia marker Cd9: blunted the upregulation
  upregulation of disease-associated microglia marker Cst7: blunted the upregulation
  upregulation of disease-associated microglia marker Lpl: blunted the upregulation
[5]; Sod1^G86R mice with BW treatment
  Tmem119 expression: downregulated
5-HT2B [6]
  %Binding inhibition at 10 µM: 103.54%
5-HT2B receptor
  agonist activity in rat stomach fundus: potent agonist
5-HT2B [7]
  inhibition at 10 µM: 100%
5-HT2B [8]
  inhibition at 10 µM: 99%
[9]; in vivo
  Tmax: ~30 min
  concentration at 4 h: 860 ng/g
  concentration at 8 h: 14.4 ng/mL and 417 ng/g
[9]; plasma
  half-life: 66 min
